Measurements reported in patent US20060241130A1, “Anti-inflammatory compositions and uses thereof” (priority 2003, published 2006).

How the values were obtained:
asthmatic human patients = test: Double-blind cross-over study in asthmatic children, adenosine bronchial provocation test; format: in vivo; settings: about 80 ppm nightly for two weeks
Description: Patients: Eleven patients were recruited from children to the pediatric pulmonary clinic, Rambam Medical Center, Haifa. Inclusion criteria: age: 6-11 years; diagnosis of asthma by ATS criteria; ability to perform spirometry consistently; asthma severity classified as “mild persistent” as per the GINA workshop report; no anti-inflammatory medication, including antihistamines, taken for at least 2 weeks prior to enrollment. Exclusion criteria: presence of other chronic conditions; emergency room visit in the past 3 months; respiratory infection in the past month; steroids or other anti-inflammatory medication taken within 2 weeks prior to treatment; and bronchodilators, theophylline preparations or monteleukast taken in the 24 hours prior to spirometry.
Study design: A double-blind cross-over study format was used to evaluate the effect of monoterpenes on asthma. The study included four phases, each lasting two weeks. Following enrollment, baseline spirometry was performed and inclusion/exclusion was verified. The patients then filled in a diary card for two weeks. […]
Adenosine bronchial provocation test (BPT): Bronchial provocation tests were performed by inhalation of nebulized adenosine 5′-monophosphate (adenosine; Sigma chemical company, St. Louis, Mo., USA) solutions in doubling doses. […] The best of three efforts were recorded. […]

[1] = Cromolyn sodium lyotropic mesophase formation (polarizing microscope); format: physicochemical; settings: phosphate buffered saline pH 7.4, 5 to 12 percent (w/w) tested
Description: Preparation of cromolyn sodium lyotropic mesophases: Solutions of cromolyn sodium (white powder, Vitamed Inc., Israel) were dissolved in phosphate buffered saline [50 mM phosphate, 100 mM NaCl (pH 7.4)] at eight different concentrations between 5 and 12 percent (w/w).

[2] = Control: effect of hydrogen peroxide on cromolyn sodium mesophases; format: physicochemical; settings: hydrogen peroxide (30 percent), 8 hours at room temperature
Description: (§1) Analysis of the effect of ozone on cromolyn sodium mesophases: Six solutions of cromolyn sodium in PBS (7-12 percent) were placed in narrow (5 mm) NMR tubes and ozone (10 percent in oxygen) was bubbled for 5 minutes through the solutions using a flexible Teflon tube. […] Control experiments were carried out with hydrogen peroxide (30 percent) and sodium hypochlorite.

[3] = Effect of ozone on cromolyn sodium mesophases; format: physicochemical; settings: 7-12 percent in PBS, ozone (10 percent in oxygen) bubbled for 5 minutes
Description: as §1

[4] = Control: effect of sodium hypochlorite on cromolyn sodium mesophases; format: physicochemical; settings: any concentration of cromolyn sodium, 8 hours at room temperature
Description: as §1

[5] = test system: ovalbumin sensitized Brown Norway rats; test: Asthma treatment model II: Penh (barometric plethysmography) after repeated OVA challenge; format: in vivo, rat; settings: 125 ppm in breathing atmosphere day 14 to day 21, measured day 21, 5 minutes after allergen challenge, mean ± standard error
Description: (§2) Asthma treatment model II: Asthma was induced on day 0 in three experimental groups of 10 animals each, by sensitization with ovalbumin (OVA) and aluminum hydroxide, as previously described (Du et al., 1992. Am. Rev. Resp. Dis. 146:1037-1041). Sensitization to the model antigen ovalbumin (OVA) was carried out by subcutaneous injection of 1 mg OVA (Sigma, St. Louis, Mo.) and 200 mg of aluminum hydroxide (AlumInject; Pierce Chemical, Rockford, Ill.) in 0.9 percent (w/w) saline in a total volume of 1 ml, and intraperitoneal injection of 1 ml saline containing 6 billion heat killed Bordetella pertussis cells (Pasteur Marieux, France). A fourth group of 10 animals was not sensitized and was used as the naive control group. The three groups of sensitized rats as well as the group of naive animals were challenged every other day from day 14 until day 21 with repeated 10 minute long inhalations of OVA using an ultrasonic nebulizer inhaler (LS 230 Systam Villeneuve Sur Lot, France). Throughout the experiments, the rats were kept unrestrained in a 20 liters box.

[6] = test system: ovalbumin sensitized Brown Norway rats; test: Asthma treatment model II: blinded histopathological scoring of lung sections (H&E); format: in vivo, rat
Description: as §2
In model II, all rats were anaesthetized on day 21 with pentothal and sacrificed by bleeding from the abdominal aorta. Lungs were removed and inflated with 4 percent buffered formaldehyde overlayed with 20 cm water. The lungs were sliced longitudinally and embedded in paraffin. Histologic sections 5 microns thick were cut and stained with hematoxylin and eosin. The morphological changes were evaluated by light microscopy by a pathologist who was blinded to the treatment groups. The intensity of the peribronchiolar and perivascular cellular infiltration was assessed semi-quantitatively on a 0-3 scale as follows: 0=no or practically no inflammatory cells; I=a narrow rim of inflammatory cells surrounding most of the bronchioles/blood vessels, best visualized under high power; 2=a rim of inflammatory cells 3-4 cells thick, surrounding most of the bronchioles/blood vessels; 3=a prominent rim of inflammatory cells, 5 or more cells thick, surrounding most of the bronchioles/blood vessels. Bronchiolar constriction was also assessed on a semi-quantitative scale ranging over 0-3 grades (0=none; 1=mild; 2=moderate; 3=marked). The histologic sections included bronchioles (defined as airways lined by mucosa and lacking cartilage) and distal airways (alveolar ducts and sacs). The features examined included peribronchiolar and perivascular inflammation, morphological evidence of bronchoconstriction (papillary infolding of the bronchiolar mucosa) and granulomatous response in the pulmonary parenchyma.

[7] = 0-3 scale, 125 ppm inhalation day 14-21, OVA sensitized, OVA challenged rats
[8] = H&E, representative treated rat

C=C(C)[C@H]1CC=C(C)CC1 [limonene, d-limonene]
improvement in severely asthmatic patients as compared to moderately asthmatic patients (asthmatic human patients; adenosine challenge): approximately one order of magnitude improvement
asthmatics with asthmatic stress significantly and specifically relieved (adenosine challenge) (asthmatic human patients; children 6-11 years, compared to cineole negative control): 6/11

O=C(O)c1cc(=O)c2c(OCC(O)COc3cccc4oc(C(=O)O)cc(=O)c34)cccc2o1 [cromolyn sodium]
minimal concentration that exhibited birefringence [1]: 6%
birefringence after hydrogen peroxide, 7 and 8 percent cromolyn sodium [2]: loss of birefringence was observed
birefringence after hydrogen peroxide, more concentrated cromolyn sodium [2]: No effect
birefringence after ozone [3]: Loss of birefringence in all tubes
conversion to oxidized products (1H-NMR) [3]: complete conversion
birefringence after hypochlorite [4]: No effect

CC12CCC(CC1)C(C)(C)O2 [eucalyptol]
Penh values [5]: 2.25±0.12
morphological evidence of bronchoconstriction score ([6]; 0-3 grades, 125 ppm inhalation day 14-21, OVA sensitized, OVA challenged rats): 2.3±0.21
peribronchial inflammatory cell infiltration score [6, 7]: 2.2±0.29
perivascular inflammatory cell infiltration score [6, 7]: 2.5±0.27
granulomas (granulomatous response) score ([6]; 125 ppm inhalation day 14-21, OVA sensitized, OVA challenged rats): 1.8±0.42
morphologic bronchoconstriction in representative lung section (FIG. 12) [6, 8]: shows morphologic evidence of bronchoconstriction
peribronchiolar inflammation in representative lung section (FIG. 12) [6, 8]: peribronchiolar inflammation and a lymphoid follicle
